Among the targets are Cytochrome P450 2C9 (Homo sapiens, UniProt P11712); Cytochrome P450 3A4 (Homo sapiens, UniProt P08684); Cytochrome P450 2D6 (Homo sapiens, UniProt P10635).
The target of test [1] is T1, Rac GTPase-activating protein 1 (Homo sapiens, UniProt Q9H0H5).
T1 sequence (Q9H0H5 whole entry): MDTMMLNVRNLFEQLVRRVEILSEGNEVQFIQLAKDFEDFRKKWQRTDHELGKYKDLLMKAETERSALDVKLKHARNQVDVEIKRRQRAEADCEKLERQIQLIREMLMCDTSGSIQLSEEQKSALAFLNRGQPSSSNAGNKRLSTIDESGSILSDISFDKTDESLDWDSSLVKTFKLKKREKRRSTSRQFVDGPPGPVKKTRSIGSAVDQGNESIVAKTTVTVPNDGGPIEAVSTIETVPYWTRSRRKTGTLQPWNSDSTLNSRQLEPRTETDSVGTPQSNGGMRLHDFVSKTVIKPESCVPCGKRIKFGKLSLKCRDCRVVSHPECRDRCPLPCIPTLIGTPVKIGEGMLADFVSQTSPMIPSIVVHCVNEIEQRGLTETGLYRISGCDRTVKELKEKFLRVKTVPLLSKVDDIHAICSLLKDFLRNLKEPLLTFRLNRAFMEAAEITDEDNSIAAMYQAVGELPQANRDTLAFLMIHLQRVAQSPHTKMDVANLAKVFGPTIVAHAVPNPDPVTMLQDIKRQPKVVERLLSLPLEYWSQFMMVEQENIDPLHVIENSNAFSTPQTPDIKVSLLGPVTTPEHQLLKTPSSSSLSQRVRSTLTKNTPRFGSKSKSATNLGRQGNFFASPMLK
Description: blockers of MgcRacGAP-driven Rac1 GTP hydrolysis – biochemical, ADP Hunter fluorescence, primary and confirmatory, confirmation (AID 624330). It counts as functional.

Another test deals with Cytochrome P450 2C19 (Homo sapiens, UniProt P33261). Description: Cytochrome panel assay with activity outcomes. Panel member name: p450-cyp2c19 Compounds with AC50 equal or less than 10 uM are considered active. It counts as functional. To be noted: read-out: AC50.
Chain of Cytochrome P450 2C19 (P33261 whole entry): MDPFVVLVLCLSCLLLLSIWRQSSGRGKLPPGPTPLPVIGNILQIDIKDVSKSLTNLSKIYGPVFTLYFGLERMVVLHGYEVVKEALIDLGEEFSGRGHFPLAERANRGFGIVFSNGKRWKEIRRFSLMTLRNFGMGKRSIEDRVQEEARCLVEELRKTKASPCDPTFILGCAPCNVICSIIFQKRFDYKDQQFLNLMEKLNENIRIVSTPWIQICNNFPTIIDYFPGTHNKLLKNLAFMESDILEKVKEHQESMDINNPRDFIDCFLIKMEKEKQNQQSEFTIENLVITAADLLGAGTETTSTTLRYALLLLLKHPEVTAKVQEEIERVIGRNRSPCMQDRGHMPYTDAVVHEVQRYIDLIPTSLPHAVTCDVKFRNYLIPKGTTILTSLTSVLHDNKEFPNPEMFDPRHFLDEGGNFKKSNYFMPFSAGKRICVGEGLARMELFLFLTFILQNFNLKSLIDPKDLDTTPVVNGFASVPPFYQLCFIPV
The target in a further test is T2, Cytochrome P450 1A2 (Homo sapiens, UniProt P05177).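 Also: PubChem cytochrome P450 panel assay, CYP1A2 panel member.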
T2 sequence (P05177 whole entry): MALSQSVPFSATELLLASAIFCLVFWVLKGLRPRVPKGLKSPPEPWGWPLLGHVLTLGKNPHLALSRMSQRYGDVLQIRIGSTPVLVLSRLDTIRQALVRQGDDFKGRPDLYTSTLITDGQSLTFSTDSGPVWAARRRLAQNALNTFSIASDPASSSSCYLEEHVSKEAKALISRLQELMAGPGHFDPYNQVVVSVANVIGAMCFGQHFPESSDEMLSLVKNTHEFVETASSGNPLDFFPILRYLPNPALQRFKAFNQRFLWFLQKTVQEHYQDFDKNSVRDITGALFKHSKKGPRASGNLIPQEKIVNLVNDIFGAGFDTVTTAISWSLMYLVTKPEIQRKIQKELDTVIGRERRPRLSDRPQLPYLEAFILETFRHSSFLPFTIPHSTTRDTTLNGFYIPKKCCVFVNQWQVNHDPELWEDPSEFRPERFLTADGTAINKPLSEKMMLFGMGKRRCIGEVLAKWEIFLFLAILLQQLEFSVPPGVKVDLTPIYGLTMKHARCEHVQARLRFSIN

Test [2] addresses T3, Corticotropin-releasing factor receptor 2/Corticotropin-releasing factor-binding protein (Homo sapiens, UniProt P24387+Q13324).
T3 sequence (Q13324 whole entry): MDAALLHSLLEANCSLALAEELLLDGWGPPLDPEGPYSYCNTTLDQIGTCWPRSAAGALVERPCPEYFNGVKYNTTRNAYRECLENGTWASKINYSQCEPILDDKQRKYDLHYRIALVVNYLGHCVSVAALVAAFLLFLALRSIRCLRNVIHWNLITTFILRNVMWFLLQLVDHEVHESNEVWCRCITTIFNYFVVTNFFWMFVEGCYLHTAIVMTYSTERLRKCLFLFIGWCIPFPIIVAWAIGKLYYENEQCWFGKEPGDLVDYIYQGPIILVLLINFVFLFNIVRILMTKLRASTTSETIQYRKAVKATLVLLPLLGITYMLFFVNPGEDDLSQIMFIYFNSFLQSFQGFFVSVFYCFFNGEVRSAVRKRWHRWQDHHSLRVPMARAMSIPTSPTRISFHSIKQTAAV
T3 sequence (P24387 whole entry): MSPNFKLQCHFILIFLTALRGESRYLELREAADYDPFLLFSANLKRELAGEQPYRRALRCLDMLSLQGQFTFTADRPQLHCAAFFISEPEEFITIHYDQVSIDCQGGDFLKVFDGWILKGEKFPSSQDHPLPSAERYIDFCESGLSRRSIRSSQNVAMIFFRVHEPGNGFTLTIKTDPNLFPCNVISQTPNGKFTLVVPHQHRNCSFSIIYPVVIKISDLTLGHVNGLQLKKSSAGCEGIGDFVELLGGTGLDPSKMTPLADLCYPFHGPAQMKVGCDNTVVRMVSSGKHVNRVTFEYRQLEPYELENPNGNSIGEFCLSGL
Description: activators of CRF receptor 2 with binding protein – uHTS hits, confirmation (AID 602473). It counts as functional. To be noted: read-out: EC50_Mean.

Test [3] in a line: cells. It counts as functional, cell-based.
A short description of test [4]: cells. It counts as functional, cell-based. This is another data set of the same source.
Test [5] addresses Luciferin 4-monooxygenase (Photinus pyralis, UniProt P08659). Description: inhibition of purified Photinus pyralis luciferase – biochemical, luminescence, dose response (AID 1891).
Test [6] can be described thus: Luminescence Cell-Based Dose Confirmation HTS to Identify Inhibitors of Platelet Dense Granule Release. [Related pubchem assays: 1663 (Primary HTS), 1678 (Summary of Project)]. It counts as functional.
In a further test the test system is H4. Description: Luminescence Cell-Based Dose Response HTS to Identify Activators of 5'UTR Stem-Loop Driven Prion Protein mRNA Translation in H4 Neuroglioblastoma Cells. [Related pubchem assays: 1829 (Project Summary), 1814 (Primary HTS)]. It counts as functional. To be noted: Homo sapiens.
A short description of test [7]: Luminescence Cell-Based Dose Confirmation HTS to Identify Activators of 5'UTR Stem-Loop Driven Alpha-Synuclein mRNA Translation in H4 Neuroglioblastoma Cells. [Related pubchem assays: 1829 (Project Summary), 1814 (Primary HTS)]. It counts as functional.
Test [8] can be described thus: Luminescence Cell-Based Dose Response HTS to Identify Activators of Luciferase Translation or Activity in H4 […] Cells. [Related pubchem assays: 1829 (Project Summary), 1814 (Primary HTS)]. It counts as functional.

Each structure is given as a SMILES string. The source made the active and inactive calls.

Chain of Cytochrome P450 2C9 (P11712 whole entry): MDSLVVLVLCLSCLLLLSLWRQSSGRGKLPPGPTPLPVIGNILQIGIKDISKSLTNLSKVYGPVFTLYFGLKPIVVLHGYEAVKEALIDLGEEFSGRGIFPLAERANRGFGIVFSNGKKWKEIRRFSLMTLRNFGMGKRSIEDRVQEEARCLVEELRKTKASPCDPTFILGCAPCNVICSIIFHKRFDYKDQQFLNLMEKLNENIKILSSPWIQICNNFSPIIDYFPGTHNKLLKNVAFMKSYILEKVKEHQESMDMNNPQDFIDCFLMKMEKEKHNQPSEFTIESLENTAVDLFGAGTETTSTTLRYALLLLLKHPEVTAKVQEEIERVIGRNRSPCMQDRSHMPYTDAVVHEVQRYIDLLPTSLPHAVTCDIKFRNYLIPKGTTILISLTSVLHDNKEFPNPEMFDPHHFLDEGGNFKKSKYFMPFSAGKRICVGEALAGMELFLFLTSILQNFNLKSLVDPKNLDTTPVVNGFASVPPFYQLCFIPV
Chain of Luciferin 4-monooxygenase (P08659 whole entry): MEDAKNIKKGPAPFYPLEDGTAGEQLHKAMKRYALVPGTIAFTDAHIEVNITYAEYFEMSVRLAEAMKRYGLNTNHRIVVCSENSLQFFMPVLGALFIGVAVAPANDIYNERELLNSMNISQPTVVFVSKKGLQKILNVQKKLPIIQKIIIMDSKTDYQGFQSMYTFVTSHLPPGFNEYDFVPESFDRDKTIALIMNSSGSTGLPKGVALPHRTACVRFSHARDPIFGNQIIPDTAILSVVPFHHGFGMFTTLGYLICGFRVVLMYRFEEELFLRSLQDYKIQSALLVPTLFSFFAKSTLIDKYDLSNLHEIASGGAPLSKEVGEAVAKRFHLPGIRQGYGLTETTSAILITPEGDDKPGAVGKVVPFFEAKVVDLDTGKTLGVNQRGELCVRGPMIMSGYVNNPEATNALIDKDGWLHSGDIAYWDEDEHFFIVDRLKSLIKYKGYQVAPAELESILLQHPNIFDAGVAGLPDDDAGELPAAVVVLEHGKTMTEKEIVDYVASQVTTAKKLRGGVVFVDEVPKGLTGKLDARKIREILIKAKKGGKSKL
Chain of Cytochrome P450 3A4 (P08684 whole entry): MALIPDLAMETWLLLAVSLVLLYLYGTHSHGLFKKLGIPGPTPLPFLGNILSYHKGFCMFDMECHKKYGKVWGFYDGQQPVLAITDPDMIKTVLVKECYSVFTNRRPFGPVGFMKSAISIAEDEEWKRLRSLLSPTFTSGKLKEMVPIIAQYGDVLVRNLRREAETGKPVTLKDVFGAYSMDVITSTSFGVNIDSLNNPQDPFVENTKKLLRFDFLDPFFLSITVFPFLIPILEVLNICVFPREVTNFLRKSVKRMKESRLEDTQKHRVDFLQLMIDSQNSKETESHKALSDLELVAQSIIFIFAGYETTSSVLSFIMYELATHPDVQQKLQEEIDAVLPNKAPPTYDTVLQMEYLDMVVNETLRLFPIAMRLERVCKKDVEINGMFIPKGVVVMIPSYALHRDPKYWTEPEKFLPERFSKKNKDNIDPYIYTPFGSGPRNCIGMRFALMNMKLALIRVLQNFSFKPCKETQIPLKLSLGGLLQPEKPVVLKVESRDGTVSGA
Chain of Cytochrome P450 2D6 (P10635 whole entry): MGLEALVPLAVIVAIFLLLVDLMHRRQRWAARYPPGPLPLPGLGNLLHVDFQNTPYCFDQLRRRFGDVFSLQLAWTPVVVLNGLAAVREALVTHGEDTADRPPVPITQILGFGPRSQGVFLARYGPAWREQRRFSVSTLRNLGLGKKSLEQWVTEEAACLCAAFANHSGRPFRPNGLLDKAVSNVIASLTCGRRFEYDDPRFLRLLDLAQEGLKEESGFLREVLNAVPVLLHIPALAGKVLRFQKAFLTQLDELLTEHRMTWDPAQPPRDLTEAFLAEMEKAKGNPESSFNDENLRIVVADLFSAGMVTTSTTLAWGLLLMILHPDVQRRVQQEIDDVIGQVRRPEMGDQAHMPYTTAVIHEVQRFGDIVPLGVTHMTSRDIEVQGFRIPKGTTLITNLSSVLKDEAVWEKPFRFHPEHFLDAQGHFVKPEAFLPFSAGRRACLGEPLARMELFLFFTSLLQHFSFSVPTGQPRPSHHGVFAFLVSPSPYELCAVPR

Consider `CCC1(c2ccccc2)NC(=O)N(CC(=O)Nc2ccc(N3CCCC3)cc2C)C1=O` (stereo not given), for which the concentration for half-maximal inhibition (IC50) in test [1] was 112 µM (active).

In the case of `CC(C)COc1ccc(N)cc1OCC(C)C`, the concentration for half-maximal inhibition (IC50) in [1] is 55.3 µM (active).

On to `c1cncc(-c2nnc3n2C2(CCCCC2)Cc2ccccc2-3)c1`, for which the AC50 on Cytochrome P450 2C19 was 44.7 µM (inconclusive); on Cytochrome P450 1A2, 39.8 µM (inconclusive); at Cytochrome P450 2C9, 31.6 µM (inconclusive).

Regarding `CC(=O)Nc1ccc(CN2CCCC(CO)(Cc3cccc(Cl)c3)C2)cc1` (stereo not given), in test [2], the EC50 is > 53 µM (inactive).

`C=CCOc1ccc(/C=C2\SC(N)=NC2=O)cc1OC`: the EC50 in “cells [3]” and in “cells [4]” was > 350 µM (not active) each time.

As to `COc1ccc(S(=O)(=O)N(Cc2cccnc2)Cc2cc3ccccc3nc2O)cc1`, the EC50 in test [5] and in [6] was > 112 µM (not active) in each case.

As for `Cc1ccc2c(c1)NCC(C(=O)NC1CCCCC1)O2` (stereo not given), the concentration at half-maximal activity (AC50) on Cytochrome P450 3A4 is 31.6 µM (inconclusive); at Cytochrome P450 1A2, 11.2 µM (inconclusive); on Cytochrome P450 2C9, 39.8 µM (inconclusive).

Turning to `O=[N+]([O-])c1ccc(/N=C/c2ccc(Br)c([N+](=O)[O-])c2)cc1`, the EC50 in the test “cells [3]” and in “cells [4]” was > 350 µM (not active) each time.

On to `COc1ccc(-c2noc(CCCC(=O)NCCc3ccccc3)n2)cc1OC`, for which the half-maximal activity concentration (AC50) is 22.4 µM (inconclusive) at Cytochrome P450 2D6, 15.8 µM (inconclusive) on Cytochrome P450 1A2 and 4.47 µM (inconclusive) on Cytochrome P450 2C9.

As for `CN(C)S(=O)(=O)c1ccc(Cl)c(NC(=O)COc2ccccc2[N+](=O)[O-])c1`, the EC50 in test [5] and in test [6] was > 112 µM (not active) in each case.

Consider `Cc1nc2c(ccc3nc(NC(=O)c4ccc(S(=O)(=O)N(C)C)cc4)sc32)s1`, for which the AC50 was 3.55 µM (inconclusive) at Cytochrome P450 3A4, 7.94 µM (inconclusive) on Cytochrome P450 2C19, 3.16 µM (inconclusive) on Cytochrome P450 1A2 and 0.794 µM (inconclusive) on Cytochrome P450 2C9.

With `O=C(c1cc(C2CC2)nn1-c1ccccc1)N1CCN(c2ccc(O)cc2)CC1`, in [1], the IC50 is 37.9 µM (active).

`NC(CCCCc1ccccc1)c1cccc2ccccc12` (stereo not given): the EC50 in [5] is > 112 µM (not active); in test [6] it was 24.6 µM (active).

For `CC(=O)c1cc(NC(=O)c2ccc(C)cc2)c(=O)oc1/C=C/N(C)C`, the EC50 in test [2] was 6.73 µM (active).

`CC1(C)C[C@H](O)[C@@]23C[C@@H](OC2=O)[C@]2(C)C(=CCC4[C@@]5(C)CC[C@H](O)C(C)(C)C5CC[C@]42C)[C@@H]3C1` (stereo not given in full): in test [2], the EC50 is 5.32 µM (active).

For the molecule `COC(=O)Cn1/c(=N/C(=O)CSC(C)=O)sc2ccccc21`, the EC50 in test [5] and in [6] was > 112 µM (not active) throughout.

Turning to `Cc1ccc2cccc(S(=O)(=O)N3CCCc4ccccc43)c2n1`, the results for the EC50 in test [5], in test [2] and in [6] were 34 µM (active), 11.9 µM (active) and 15.8 µM (active), respectively.

With `O=C(C1CCCN(Cc2cccnc2)C1)N1CCCCC1` (stereo not given), the 50% inhibitory concentration (IC50) in test [1] was 74 µM (active).

For `Cc1ccc2nc3c(O)n(CC(=O)NCCCN(C)Cc4ccccc4)ncc-3c2c1`, the EC50 in “cells [3]” and in “cells [4]” was > 350 µM (not active) each time.

For `CCOC(=O)C1CCCN(C(=O)c2ccc3oc(Cc4ccccc4)nc3c2)C1` (stereo not given), the EC50 in [5] was > 112 µM (not active); in the test on H4, 36.4 µM (active); in test [6], > 112 µM (not active); in test [7], 13.9 µM (active); in test [8], 16.2 µM (active).

On to `O=C(NC(=S)Nc1cccc2c(O)cccc12)c1ccco1`, for which the 50% inhibitory concentration (IC50) in test [1] was 32.3 µM (active).

With `C=CCN1C(=O)/C(=C2/Sc3ccccc3N2C)S/C1=N\c1c(C)n[nH]c1C`, the EC50 in [5] is > 112 µM (not active); in [6] it was 17.5 µM (active).

Take `Cc1ccc(OCCCN2CCCC2)c(C)c1`: in [1], the IC50 was 105 µM (active).

Turning to `COc1ccccc1OCc1nnc(SCC(=O)NCc2ccco2)n1-c1ccccc1`, the EC50 in “cells [3]” and in “cells [4]” was > 350 µM (not active) in each case.

For the molecule `COc1ncnc2sc(-c3ccccc3)cc12`, the EC50 in test [5] is 2.4 µM (active); in [6], 6.33 µM (active).

Regarding `Cc1c(NC(=O)CN2CC(C)OC(C)C2)c(=O)n(-c2ccccc2)n1C` (stereo not given), in test [1], the IC50 is 83.1 µM (active).

Turning to `Cn1c(CCNC(=O)c2ccco2)nc2cc(NC(=O)C3CCCCC3)ccc21`, the figures for the EC50 in the test “cells [3]” and in the test “cells [4]” were > 350 µM (not active) and 97.8 µM (active), respectively.

Regarding `CCCC(=O)C1=C(N2CCCCC2)CC(C)(C)C(C(=O)OC)C1=O` (stereo not given), the EC50 in test [5] and in test [6] was > 112 µM (not active) throughout.
